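Exposure lasted 48 hours, with cells grown in 96-well plates and compounds tested at five concentrations. GI50: concentration for 50% inhibition of growth. TGI denotes the concentration required for complete inhibition of growth.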
Each compound was assayed on 786-0 renal (assay: growth of human tumour cells (NCI), 48 h).

Oc1cccnc1CN1CCCCC1 was tested, and the TGI was > 100 µM.

The compounds below were run on TK-10 renal (assay: growth of human tumour cells (NCI), 48 h).

Point of comparison: CCCCC(O)(c1ccc(Cl)cc1)C(CN1CCOCC1)c1ccc(Cl)cc1 (centres undefined), GI50 16.6 µM. Against it:
- CN1CCN(CCCOc2ccc3nc(Nc4ccc(Cl)c(C(F)(F)F)c4)ccc3c2)CC1 — within 1.5-fold, 18.3 µM
- CC(C)n1nc(-c2cc3cc(O)ccc3[nH]2)c2c(N)ncnc21 — 93-fold lower, 0.178 µM
- O=C1OC(C(O)CO)C(=O)C1=O (centres undefined) — 130-fold higher, 2080 µM
- Cc1ccc(C(=O)CN(/C=C/C(=O)C(F)(F)F)c2ccc(S(N)(=O)=O)cc2)cc1 — 2.7-fold higher, 44.5 µM
- CC(=O)/C(C)=N/NC(=O)c1ccccc1O — higher, > 100 µM
- CC(=O)[O-].CCN(CC)c1ccc(C=NCCN=Cc2ccc(N(CC)CC)cc2[O-])c([O-])c1.[Mn+3] — 3.4-fold higher, 56.6 µM
- Clc1ccc(C2=Nn3c(COc4ccccc4Cl)nnc3SC2)c(Cl)c1 — 1.6-fold higher, 26.5 µM
- CCC[CH2][Sn]1([CH2]CCC)[O]CC(CN2CCCC2)[O]1 (centres undefined) — within 1.5-fold, 12 µM
- CCOC(=O)c1c(C)n(Cc2ccc(Cl)cc2Cl)c2c1c(CN(C)C)c(O)c1[nH]cnc12 — within 1.5-fold, 22.7 µM
- COc1ccc(Cn2cc3c(c2-c2ccccc2)CC(C)(C)c2cnoc2-3)cc1 — 5.7-fold lower, 2.91 µM

Point of comparison: Clc1ccc(C2=Nn3c(COc4ccccc4Cl)nnc3SC2)c(Cl)c1, TGI 95.4 µM. Against it:
- CN1CCN(CCCOc2ccc3nc(Nc4ccc(Cl)c(C(F)(F)F)c4)ccc3c2)CC1 — 2.9-fold lower, 32.8 µM
- CC(C)n1nc(-c2cc3cc(O)ccc3[nH]2)c2c(N)ncnc21 — 41-fold lower, 2.31 µM
- CCCCC(O)(c1ccc(Cl)cc1)C(CN1CCOCC1)c1ccc(Cl)cc1 (centres undefined) — 3.1-fold lower, 31.2 µM
- NCC1Nc2ccccc2[C@@H](O)C1O (some centres undefined) — higher, > 100 µM
- OC[C@H]1CCCC1O (some centres undefined) — higher, > 100 µM
- O=C1CCN2C(=O)CCN12 — higher, > 100 µM
- O=C1OC(C(O)CO)C(=O)C1=O (centres undefined) — 37-fold higher, 3570 µM
- COc1ccc(/C=C/c2ccnc3ccccc23)c(OC)c1 — not separable, > 10 µM
- Cc1ccc(C(=O)CN(/C=C/C(=O)C(F)(F)F)c2ccc(S(N)(=O)=O)cc2)cc1 — higher, > 100 µM
- Clc1nc(Cl)c(Cl)c(-c2ccccc2)n1 — 2.9-fold lower, 32.9 µM
- CC1CC[C@]2(C(=O)O)CCC3(C)C(=CC(=O)C4[C@@]5(C)CCC(=O)C(C)(C)C5CC[C@]43C)[C@@H]2[C@H]1C (some centres undefined) — within 1.5-fold, 90.2 µM
- COc1cc2c(cc1OC)C(CC(=O)NN=C(C)C)NCC2 (centres undefined) — higher, > 100 µM
- CC(=O)/C(C)=N/NC(=O)c1ccccc1O — higher, > 100 µM
- CC(=O)[O-].CCN(CC)c1ccc(C=NCCN=Cc2ccc(N(CC)CC)cc2[O-])c([O-])c1.[Mn+3] — higher, > 100 µM
- CCC[CH2][Sn]1([CH2]CCC)[O]CC(CN2CCCC2)[O]1 (centres undefined) — 3.9-fold lower, 24.3 µM
- CCOC(=O)c1c(C)n(Cc2ccc(Cl)cc2Cl)c2c1c(CN(C)C)c(O)c1[nH]cnc12 — 2.4-fold lower, 39.1 µM
- CCOc1ccccc1NC(=O)CC(C(=O)OC)C(=O)C(=O)OC (centres undefined) — higher, > 100 µM
- COc1cccc2c1C(=O)c1c(O)c3c(c(O)c1C2=O)C[C@@](O)(C(C)=O)C[C@@H]3OC1OC(C)C(O)C(N)C1Br (some centres undefined) — 230-fold lower, 0.407 µM
- COC(=O)C1=C(C)N(NC(=O)OC(C)(C)C)C(=O)C1=P(c1ccccc1)(c1ccccc1)c1ccccc1 — higher, > 100 µM
- O=C1OC(c2ccccc2)=N/C1=C\c1cccc2ccccc12 — higher, > 100 µM
- C[C@@H]1CC(=O)C2CCCC1C2=O (some centres undefined) — higher, > 100 µM
- COc1ccc(Cn2cc3c(c2-c2ccccc2)CC(C)(C)c2cnoc2-3)cc1 — higher, > 100 µM
- Oc1cccnc1CN1CCCCC1 — higher, > 100 µM

These compounds were tested on NCI/ADR-RES ovarian (assay: growth of human tumour cells (NCI), 48 h).

Point of comparison: CC(C)n1nc(-c2cc3cc(O)ccc3[nH]2)c2c(N)ncnc21, GI50 0.348 µM. Against it:
- CN1CCN(CCCOc2ccc3nc(Nc4ccc(Cl)c(C(F)(F)F)c4)ccc3c2)CC1 — 42-fold higher, 14.7 µM
- CCCCC(O)(c1ccc(Cl)cc1)C(CN1CCOCC1)c1ccc(Cl)cc1 (centres undefined) — 34-fold higher, 12 µM
- Cc1cccc(N2CCN(C(=S)c3ccc4c(c3)OCO4)CC2)c1 — within 1.5-fold, 0.338 µM
- Cc1cc(C(=O)Nc2ncc(Cc3cccc(C(F)(F)F)c3)s2)c2ccccc2n1 — 5.9-fold higher, 2.06 µM
- O=C1OC(C(O)CO)C(=O)C1=O (centres undefined) — 20000-fold higher, 7060 µM
- Cc1ccc(C(=O)CN(/C=C/C(=O)C(F)(F)F)c2ccc(S(N)(=O)=O)cc2)cc1 — 180-fold higher, 62.9 µM
- Clc1ccc(C2=Nn3c(COc4ccccc4Cl)nnc3SC2)c(Cl)c1 — higher, > 100 µM

Point of comparison: CC(C)n1nc(-c2cc3cc(O)ccc3[nH]2)c2c(N)ncnc21, TGI 7.22 µM. Against it:
- CN1CCN(CCCOc2ccc3nc(Nc4ccc(Cl)c(C(F)(F)F)c4)ccc3c2)CC1 — 4.6-fold higher, 33.2 µM
- CCCCC(O)(c1ccc(Cl)cc1)C(CN1CCOCC1)c1ccc(Cl)cc1 (centres undefined) — 4.5-fold higher, 32.2 µM
- NCC1Nc2ccccc2[C@@H](O)C1O (some centres undefined) — higher, > 100 µM
- OC[C@H]1CCCC1O (some centres undefined) — higher, > 100 µM
- Cc1cccc(N2CCN(C(=S)c3ccc4c(c3)OCO4)CC2)c1 — higher, > 100 µM
- Cc1cc(C(=O)Nc2ncc(Cc3cccc(C(F)(F)F)c3)s2)c2ccccc2n1 — higher, > 100 µM
- O=C1OC(C(O)CO)C(=O)C1=O (centres undefined) — higher, > 10000 µM
- COc1ccc(/C=C/c2ccnc3ccccc23)c(OC)c1 — higher, > 10 µM
- Cc1ccc(C(=O)CN(/C=C/C(=O)C(F)(F)F)c2ccc(S(N)(=O)=O)cc2)cc1 — higher, > 100 µM
- Clc1nc(Cl)c(Cl)c(-c2ccccc2)n1 — higher, > 100 µM
- CC(=O)/C(C)=N/NC(=O)c1ccccc1O — higher, > 100 µM
- Clc1ccc(C2=Nn3c(COc4ccccc4Cl)nnc3SC2)c(Cl)c1 — higher, > 100 µM
- Oc1cccnc1CN1CCCCC1 — higher, > 100 µM

Each compound was assayed on HOP-62 NSCLC (assay: growth of human tumour cells (NCI), 48 h).

Point of comparison: Cc1cccc(N2CCN(C(=S)c3ccc4c(c3)OCO4)CC2)c1, GI50 0.883 µM. Against it:
- CN1CCN(CCCOc2ccc3nc(Nc4ccc(Cl)c(C(F)(F)F)c4)ccc3c2)CC1 — 17-fold higher, 14.9 µM
- CC(C)n1nc(-c2cc3cc(O)ccc3[nH]2)c2c(N)ncnc21 — 2.2-fold lower, 0.393 µM
- CCCCC(O)(c1ccc(Cl)cc1)C(CN1CCOCC1)c1ccc(Cl)cc1 (centres undefined) — 18-fold higher, 16.3 µM
- Cc1cc(C(=O)Nc2ncc(Cc3cccc(C(F)(F)F)c3)s2)c2ccccc2n1 — 1.7-fold higher, 1.46 µM
- O=C1OC(C(O)CO)C(=O)C1=O (centres undefined) — 4200-fold higher, 3720 µM
- Cc1ccc(C(=O)CN(/C=C/C(=O)C(F)(F)F)c2ccc(S(N)(=O)=O)cc2)cc1 — higher, > 100 µM
- CC(=O)/C(C)=N/NC(=O)c1ccccc1O — higher, > 100 µM
- CC(=O)[O-].CCN(CC)c1ccc(C=NCCN=Cc2ccc(N(CC)CC)cc2[O-])c([O-])c1.[Mn+3] — 22-fold higher, 19.2 µM
- Clc1ccc(C2=Nn3c(COc4ccccc4Cl)nnc3SC2)c(Cl)c1 — 28-fold higher, 24.3 µM

Point of comparison: Clc1ccc(C2=Nn3c(COc4ccccc4Cl)nnc3SC2)c(Cl)c1, TGI 65 µM. Against it:
- CN1CCN(CCCOc2ccc3nc(Nc4ccc(Cl)c(C(F)(F)F)c4)ccc3c2)CC1 — 2.2-fold lower, 29.6 µM
- CC(C)n1nc(-c2cc3cc(O)ccc3[nH]2)c2c(N)ncnc21 — 18-fold lower, 3.56 µM
- CCCCC(O)(c1ccc(Cl)cc1)C(CN1CCOCC1)c1ccc(Cl)cc1 (centres undefined) — 1.9-fold lower, 34.5 µM
- NCC1Nc2ccccc2[C@@H](O)C1O (some centres undefined) — higher, > 100 µM
- Cc1cccc(N2CCN(C(=S)c3ccc4c(c3)OCO4)CC2)c1 — higher, > 100 µM
- Cc1cc(C(=O)Nc2ncc(Cc3cccc(C(F)(F)F)c3)s2)c2ccccc2n1 — higher, > 100 µM
- O=C1CCN2C(=O)CCN12 — higher, > 100 µM
- O=C1OC(C(O)CO)C(=O)C1=O (centres undefined) — 130-fold higher, 8570 µM
- COc1ccc(/C=C/c2ccnc3ccccc23)c(OC)c1 — not separable, > 10 µM
- Cc1ccc(C(=O)CN(/C=C/C(=O)C(F)(F)F)c2ccc(S(N)(=O)=O)cc2)cc1 — higher, > 100 µM
- Clc1nc(Cl)c(Cl)c(-c2ccccc2)n1 — 3.6-fold lower, 18.1 µM
- CC1CC[C@]2(C(=O)O)CCC3(C)C(=CC(=O)C4[C@@]5(C)CCC(=O)C(C)(C)C5CC[C@]43C)[C@@H]2[C@H]1C (some centres undefined) — within 1.5-fold, 46.3 µM
- COc1cc2c(cc1OC)C(CC(=O)NN=C(C)C)NCC2 (centres undefined) — higher, > 100 µM
- CC(=O)/C(C)=N/NC(=O)c1ccccc1O — higher, > 100 µM
- CC(=O)[O-].CCN(CC)c1ccc(C=NCCN=Cc2ccc(N(CC)CC)cc2[O-])c([O-])c1.[Mn+3] — 1.7-fold lower, 39.1 µM

— PubChem BioAssay (NCI)
